Reference: PMC8677766 (Nature Communications, 2021)

Target: T1, hRpn13 (Homo sapiens, UniProt Q16186)
T1 construct: gene ADRM1; hRpn13 Pru (1–150)
Assay: ITC; NMR structure; 2D NMR; LC-MS adduct; tryptophan quenching
Type: binding

T1 sequence (Q16186 1-150): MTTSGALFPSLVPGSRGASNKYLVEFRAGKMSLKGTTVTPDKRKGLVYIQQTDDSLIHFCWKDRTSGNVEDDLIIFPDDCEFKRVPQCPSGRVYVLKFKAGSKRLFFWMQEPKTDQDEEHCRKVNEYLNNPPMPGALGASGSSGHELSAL

Kd: 1480 ± 520 nM
Structure (SMILES): Cc1ccc(C(=O)Nc2cccc(/C=C(\C#N)C(=O)Nc3ccccc3C(=O)O)c2)cc1 [XL5]
